Experimental data as given in ChEMBL document CHEMBL2073765, “Disrupted bile acid homeostasis reveals an unexpected interaction among nuclear hormone receptors, transporters, and cytochrome P450” (J Biol Chem, 2001).

Target: Bile salt export pump (Homo sapiens, UniProt O95342)
Assay: TP_TRANSPORTER: Western in vitro, primary human hepatocyte
Assay type: functional, cell-based
Conditions: hepatocytes

Chain of Bile salt export pump (O95342 whole entry): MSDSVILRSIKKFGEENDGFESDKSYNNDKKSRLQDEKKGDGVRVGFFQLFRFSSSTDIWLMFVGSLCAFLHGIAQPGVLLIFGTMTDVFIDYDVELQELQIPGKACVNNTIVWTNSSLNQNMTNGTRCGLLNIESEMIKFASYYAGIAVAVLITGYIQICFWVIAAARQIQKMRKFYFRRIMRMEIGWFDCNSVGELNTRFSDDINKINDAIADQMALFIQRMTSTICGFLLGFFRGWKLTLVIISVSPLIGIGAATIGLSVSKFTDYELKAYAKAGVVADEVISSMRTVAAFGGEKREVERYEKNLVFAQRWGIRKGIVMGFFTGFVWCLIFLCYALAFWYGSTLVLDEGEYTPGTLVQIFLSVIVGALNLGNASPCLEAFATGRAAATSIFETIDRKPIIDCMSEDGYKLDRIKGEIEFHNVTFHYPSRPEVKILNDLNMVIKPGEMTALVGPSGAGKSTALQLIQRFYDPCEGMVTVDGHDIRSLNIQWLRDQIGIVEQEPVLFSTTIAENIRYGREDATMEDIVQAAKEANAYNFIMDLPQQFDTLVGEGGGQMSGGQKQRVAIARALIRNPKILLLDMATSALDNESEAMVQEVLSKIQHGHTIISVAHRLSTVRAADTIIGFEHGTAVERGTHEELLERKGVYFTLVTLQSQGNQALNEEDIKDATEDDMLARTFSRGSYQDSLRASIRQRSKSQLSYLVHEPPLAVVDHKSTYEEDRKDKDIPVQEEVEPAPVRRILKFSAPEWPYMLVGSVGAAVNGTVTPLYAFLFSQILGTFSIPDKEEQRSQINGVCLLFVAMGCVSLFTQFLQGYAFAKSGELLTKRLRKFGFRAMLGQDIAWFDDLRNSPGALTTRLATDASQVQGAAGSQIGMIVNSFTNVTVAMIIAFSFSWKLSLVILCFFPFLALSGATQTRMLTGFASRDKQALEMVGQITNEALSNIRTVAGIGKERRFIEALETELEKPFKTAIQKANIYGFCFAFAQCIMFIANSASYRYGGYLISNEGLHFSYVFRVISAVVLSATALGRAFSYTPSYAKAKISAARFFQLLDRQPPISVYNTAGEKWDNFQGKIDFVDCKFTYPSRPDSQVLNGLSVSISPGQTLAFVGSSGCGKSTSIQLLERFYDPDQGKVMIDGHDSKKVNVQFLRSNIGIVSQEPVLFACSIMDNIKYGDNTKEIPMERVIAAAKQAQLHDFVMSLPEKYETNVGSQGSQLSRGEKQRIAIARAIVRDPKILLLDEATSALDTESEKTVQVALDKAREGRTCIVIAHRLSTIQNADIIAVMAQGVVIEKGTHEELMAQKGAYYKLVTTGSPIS

SMILES	Activity
C[C@H](CCC(=O)O)[C@H]1CC[C@H]2[C@@H]3[C@H](O)C[C@@H]4C[C@H](O)CC[C@]4(C)[C@H]3CC[C@]12C [CHENODIOL]	inducer [+]
C[C@H](CCC(=O)O)[C@H]1CC[C@H]2[C@@H]3CC[C@@H]4C[C@H](O)CC[C@]4(C)[C@H]3C[C@H](O)[C@]12C [DEOXYCHOLIC ACID]	inducer [+]
